Results on three molecules are retold here after paper PMC10441322 (bioRxiv, 2023).

The target of one experiment is CYP2E1 (Homo sapiens, UniProt P05181). The experiment is described as follows: Vivid CYP2E1 fluorogenic competitive inhibition assay, dose-response. The experiment is classed as biochemical.
The target of experiment [1] is T1, Shaker voltage-gated potassium channel (Drosophila melanogaster, UniProt P08510). In words: cut-open voltage clamp of Shaker in Xenopus laevis oocytes, […] mV, pH […]. Format: cell-based.
T1 sequence (P08510 whole entry): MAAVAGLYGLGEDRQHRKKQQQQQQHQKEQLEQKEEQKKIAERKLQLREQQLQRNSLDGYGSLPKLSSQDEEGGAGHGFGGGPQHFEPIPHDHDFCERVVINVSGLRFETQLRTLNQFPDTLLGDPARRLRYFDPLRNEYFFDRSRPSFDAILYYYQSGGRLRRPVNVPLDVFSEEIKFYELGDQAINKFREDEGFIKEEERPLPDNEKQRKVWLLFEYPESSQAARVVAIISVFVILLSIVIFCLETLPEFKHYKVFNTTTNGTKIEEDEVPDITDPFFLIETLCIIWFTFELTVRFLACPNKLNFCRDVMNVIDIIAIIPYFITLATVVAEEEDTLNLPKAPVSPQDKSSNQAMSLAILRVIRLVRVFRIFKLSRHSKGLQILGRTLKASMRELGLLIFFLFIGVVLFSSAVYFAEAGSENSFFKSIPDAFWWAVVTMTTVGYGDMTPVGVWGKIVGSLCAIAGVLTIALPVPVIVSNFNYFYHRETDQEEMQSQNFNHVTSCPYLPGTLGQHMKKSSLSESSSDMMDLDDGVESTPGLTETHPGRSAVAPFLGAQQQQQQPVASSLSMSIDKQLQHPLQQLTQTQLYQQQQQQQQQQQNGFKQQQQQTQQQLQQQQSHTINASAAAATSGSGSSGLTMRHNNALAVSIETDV
For experiment [2], the target named is T1, Shaker voltage-gated potassium channel. In words: cut-open voltage clamp of Shaker in Xenopus oocytes, […] mV, pH […]. Format: cell-based.

For orientation: pIC50 means −log10 of the IC50, conventionally taken in molar units. Read a low pIC50 as a large IC50.

pIC50: −log10 of the molar value.

Sequence of CYP2E1 (P16435 2-677): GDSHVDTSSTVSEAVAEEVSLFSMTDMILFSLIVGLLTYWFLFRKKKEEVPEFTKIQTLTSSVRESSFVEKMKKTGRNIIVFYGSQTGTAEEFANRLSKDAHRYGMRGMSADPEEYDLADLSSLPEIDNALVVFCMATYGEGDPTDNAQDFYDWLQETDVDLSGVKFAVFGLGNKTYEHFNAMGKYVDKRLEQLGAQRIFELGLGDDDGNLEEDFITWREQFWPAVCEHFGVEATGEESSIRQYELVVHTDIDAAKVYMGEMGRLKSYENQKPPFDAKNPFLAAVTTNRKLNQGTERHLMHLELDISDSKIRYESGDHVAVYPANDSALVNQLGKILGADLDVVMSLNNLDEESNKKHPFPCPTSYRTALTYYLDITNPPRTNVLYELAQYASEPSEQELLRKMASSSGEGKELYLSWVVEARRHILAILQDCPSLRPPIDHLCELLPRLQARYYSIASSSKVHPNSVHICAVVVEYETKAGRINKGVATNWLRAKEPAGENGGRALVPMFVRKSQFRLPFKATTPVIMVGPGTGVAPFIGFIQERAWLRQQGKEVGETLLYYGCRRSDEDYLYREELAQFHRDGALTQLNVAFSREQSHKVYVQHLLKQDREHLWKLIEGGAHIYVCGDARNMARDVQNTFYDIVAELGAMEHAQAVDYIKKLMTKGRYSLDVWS
Sequence of CYP2E1 (P05181 whole entry): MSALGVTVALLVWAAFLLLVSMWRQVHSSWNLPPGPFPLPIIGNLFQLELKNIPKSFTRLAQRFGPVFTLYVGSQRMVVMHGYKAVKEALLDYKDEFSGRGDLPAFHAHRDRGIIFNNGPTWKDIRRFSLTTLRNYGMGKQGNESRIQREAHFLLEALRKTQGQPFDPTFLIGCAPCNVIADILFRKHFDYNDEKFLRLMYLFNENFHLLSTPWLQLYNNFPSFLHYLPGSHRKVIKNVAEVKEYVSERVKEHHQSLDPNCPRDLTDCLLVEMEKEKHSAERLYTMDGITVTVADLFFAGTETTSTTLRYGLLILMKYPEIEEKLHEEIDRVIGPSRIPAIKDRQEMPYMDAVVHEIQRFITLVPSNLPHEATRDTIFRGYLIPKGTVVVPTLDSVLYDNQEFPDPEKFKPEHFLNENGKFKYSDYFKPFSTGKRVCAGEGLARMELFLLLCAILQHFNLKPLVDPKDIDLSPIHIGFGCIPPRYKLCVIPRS

Regarding `Cc1cncc(F)c1N` [5Me3F4AP, 3-fluoro-5-methylpyridin-4-amine], the pIC50 at CYP2E1 was 4.44; in experiment [1], 3.52. `Cc1cnccc1N` [3Me4AP] gave a negative logarithm of the IC50 (pIC50) in experiment [2] of 4.18. Turning to `Nc1ccncc1F` [3F4AP, 3-fluoro-4-aminopyridine], the negative logarithm of the IC50 (pIC50) was 4.77 on CYP2E1 and 3.91 in experiment [2].
